Key:
[1] = Inhibition of recombinant PKCgamma (unknown origin) expressed in baculovirus infected in Sf9 cells using biotin-Ahx-peptide as substrate; set-up: species or system Homo sapiens
[2] = Oral bioavailability in ICR mouse at 20 mg/kg measured up to 48 hrs by LC-MS/MS analysis; type: ADME, organism-based; details: in vivo
[3] = Oral absorption in C57BL/6J mouse at 20 mg/kg measured up to 48 hrs by LC-MS/MS analysis; type: ADME, organism-based; details: in vivo

Structure (SMILES) | IC50 [1] | bioavailability [2] | Fa at 48 h [3]
Cc1n[nH]c2ccc(-c3cncc(OC[C@H](N)Cc4c[nH]c5ccccc45)c3)cc12 | 1400 nM | – | –
C=CC(=O)Nc1ccc2[nH]c(=O)n(C3CCN(Cc4ccc(-c5nc6cc[nH]c(=O)c6cc5-c5ccccc5)cc4)CC3)c2c1 [Borussertib] | – | < 5% | 39.6%

From ChEMBL document CHEMBL5518247 (J Med Chem, 2024)
